Legend:
[1] = species: Mus musculus; experiment: Inhibitory activity against blockage secretion of IL-10 in pokeweed mitogen (PWN)-stimulated murine splenocytes; assay type: functional, organism-based
[2] = Inhibitory activity against IL-10 on stimulated human peripheral blood mononuclear cells at 30 uM concentration; assay type: functional
[3] = Inhibitory activity against IL-2 on stimulated human peripheral blood mononuclear cells at 30 uM concentration; assay type: functional
[4] = Inhibitory activity against IL-4 on stimulated human peripheral blood mononuclear cells at 30 uM concentration; assay type: functional
[5] = Inhibitory activity against IL-5 on stimulated human peripheral blood mononuclear cells at 30 uM concentration; assay type: functional

## COc1ccc([C@H]2NC(=O)O[C@H]2CO)cc1
[1]
  IC50: 10 µM
[2]
  inhibition at 30 µM: 94%
[3]
  inhibition at 30 µM: 19%
[4]
  inhibition at 30 µM: 73%
[5]
  inhibition at 30 µM: 66%

Reference: ChEMBL document CHEMBL1136826, “A new synthesis of cytoxazone and its diastereomers provides key initial SAR information” (Bioorg Med Chem Lett, 2003)
